The subject of the series is bentgrass. Kind of series: Seed treatment of bentgrass: ground coverage by emerged plants (safener action). It is filed as in vivo. As for the experimental part:
Seeds were treated with the two active compounds individually or with mixtures of both active compounds, and the development of the plants was then observed. When the mixtures were used, the negative effects of one or both mixing partners in the case of individual application were, if at all, observed at a reduced level.
Seeds of bentgrass were seed-treated with the products and concentrations listed. Triticonazol and Pyraclostrobin were used as 200 g/l FS-formulation.
Treated sees were planted at the day of treatment and then kept under humid conditions in the greenhouse. 9 days after plating the ground coverage by emerged plants were estimated in percentage.

For `COC(=O)N(OC)c1ccccc1COc1ccn(-c2ccc(Cl)cc2)n1` [Pyraclostrobin, pyraclostrobin], for the setting “10 g a.i./100 kg seed of each active compound (200 g/l FS-formulation), greenhouse, humid conditions, ground coverage by emerged plants estimated 9 days after planting, untreated 8.5%”, the “% covered ground” value is 13.3%. The “safener action: negative effect of triticonazole on plant development” value (mixture versus individual application) is listed as “negative effect of TTZ can be compensated”.

The values above are taken from patent US8916597B2, “Use of pyraclostrobin as safener for triticonazole for controlling harmful fungi” (BASF SE, priority 2005, dated 2014).
